Results from patent publication US6768044B1, “Chimeric hydroxyl-phenyl pyruvate dioxygenase, DNA sequence and method for obtaining plants containing such a gene, with herbicide tolerance” (priority 2000, dated 2004).

B1: FAA: HPPD derived from Arabidopsis thaliana, used for comparison (protein, UniProt P93836 1-445, looked up)
4-hydroxyphenylpyruvate …: MGHQNAAVSENQNHDDGAASSPGFKLVGFSKFVRKNPKSDKFKVKRFHHIEFWCGDATNVARRFSWGLGMRFSAKSDLSTGNMVHASYLLTSGDLRFLFTAPYSPSLSAGEIKPTTTASIPSFDHGSCRSFFSSHGLGVRAVAIEVEDAESAFSISVANGAIPSSPPIVLNEAVTIAEVKLYGDVVLRYVSYKAEDTEKSEFLPGFERVEDASSFPLDYGIRRLDHAVGNVPELGPALTYVAGFTGFHQFAEFTADDVGTAESGLNSAVLASNDEMVLLPINEPVHGTKRKSQIQTYLEHNEGAGLQHLALMSEDIFRTLREMRKRSSIGGFDFMPSPPPTYYQNLKKRVGDVLSDDQIKECEELGILVDRDDQGTLLQIFTKPLGDRPTIFIEIIQRVGCMMKDEEGKAYQSGGCGGFGKGNFSELFKSIEEYEKTLEAKQLVG

Assays:
[1] = tested on: Pseudomonas fluorescens A32 HPPD; format: cell-based; conditions: E. coli culture containing vector pRP C; for end concentration giving identical results (total absence of staining): compound in DMSO solution
From the text: pRP C: The vector pRP A (which is described in the application WO 96/38567), which contains a genomic DNA fragment and the encoding region of the Pseudomonas fluorescens A32 HPPD gene, was digested with NcoI, purified and then ligated into the expression vector pKK233-2 (Clontech) which itself had been digested with NcoI, the only cloning site of this vector. The orientation of the gene in the resulting vector pRP C, which allows expression under-the control of the trc promoter, was checked.
(§1) A YT-broth-type culture medium with 1% agarose (Gibco BRL ultra pure) and 5 mM L-tyrosine (Sigma), which contains the selection agent for the above vector pRP C is poured into 96-well plates at 100 μl per well. 10 μl of an E. coli culture in the exponential growth phase which contains the vector pRP C is applied to each well.
A series was established with identical culture medium containing different concentrations (0 mM to 14 mM) of 2-cyano-3-cyclopropyl-l-(2-methylsulphonyl-4-trifluoromethylphenyl)-propane-i,3-dione (EP 0 496 631) which was solubilized in water and brought to pH 7.5. This molecule is a diketonitrile, known as an efficient inhibitor of HPPD activity (Pallett, K. E. et al. 1997. Pestic. Sci. 50, 83-84).
The end concentrations of the two molecules in DMSO solution are 3.5 mM and 7 mM, respectively.

HPPD activity = assay: In vivo activity of chimeric HPPDs (brown staining of isolated colonies); format: cell-based, E. coli; conditions: scale from 1 to 10, 10 being the most intense, reflects HPPD activity
Method: as §1
The brown staining was scored on a scale from 1 to 10, 10 being the most intense (as described in Example 1), by comparison with HPPDs derived from Arabidopsis thaliana (FAA) and Daucus carota (FCC).

Molecule | end concentration giving identical results (total absence of staining) [1] | also measured
CCOc1c(S(=O)(=O)CC)ccc(C(=O)C2C(=O)CC(C)CC2=O)c1Cl (stereo not shown) [2-(2-chloro-3-ethoxy-4-(ethyl-sulphonyl)benzoyl)-5-methyl-1,3-cyclohexadione] | 7 mM | –
CS(=O)(=O)c1cc(C(F)(F)F)ccc1C(=O)C(C#N)C(=O)C1CC1 (stereo not drawn) [2-cyano-3-cyclopropyl-l-(2-methylsulphonyl-4-trifluoromethylphenyl)-propane-i,3-dione] | – | concentration at which a total absence of staining is observed ([1]; YT broth, 1% agarose, 5 mM L-tyrosine, 16 hours at 37° C., compound solubilized in water, pH 7.5, series 0 mM to 14 mM): 7 mM
CSc1ccc(C(=O)C(C#N)C(=O)C2CC2)c(S(C)(=O)=O)c1 (stereo not shown) [2-cyano-3-cyclopropyl-1-(2-methylsulphonyl-4-(methylthio)phenyl)-propane-1,3-dione] | 3.5 mM | –
B1 | – | brown staining score (HPPD activity): 10
